Columns and labels:
[1] = Conditioned taste aversion in rats; type: in vivo, rat; details: IP 1500 μg/kg, saccharin water intake day 1 vs day 3, FIG. 6
Experimental: Conditioned taste aversion was evaluated in rats using selected peptides. Male Sprague-Dawley rats weighing ˜300 g were kept on a 12 hour on/of light cycle. Lights out was adjusted to 12:00 p.m. with food ad libitum. Animals were trained to be accustomed to 30 minutes of access to water per day. On day 1 of the experiment, rats were given 30 minutes of access to water containing 0.15% saccharin immediately prior to being dosed ICV, IV or IP with compound. On day 2 they were given plain water for the appointed time. On day 3 the rats were given saccharin-containing water again. The amount of fluid these animals consumed on day 1 and day 3 was compared. Reduced intake on day 3 indicates a conditioned taste aversion due to illness induced by drug treatment on day 1.

MC4-R [2] = target: T1, MC4-R (Homo sapiens, UniProt P32245); assay: Competitive inhibition binding assay, 125I-NDP-alpha-MSH, hMC4-R membranes; parameters: expressed in transfected cells
hMC3-R = target: T2, hMC3-R (Homo sapiens, UniProt P41968); assay: Competitive inhibition binding assay, 125I-NDP-alpha-MSH, hMC3-R membranes
T2 construct: expressed in transfected cells

MC1-R = MC1-R (Mus musculus, UniProt Q01727); assay: Competitive inhibition binding assay, 125I-NDP-alpha-MSH, B-16 mouse melanoma cell membranes; details: B-16 cells; read-out: Ki MC-1 B-16
[3] = Penile erection induction in male rats; type: in vivo, rat; details: male Sprague-Dawley rats; iv, varying quantities; 30 minutes observation; FIG. 2
Experimental: The ability of compounds to induce penile erection (PE) in male rats was evaluated with selected peptides. Male Sprague-Dawley rats weighing 200-250 g were kept on a 12 hour on/off light cycle with food and water ad libitum. All behavioral studies were performed between 10 a.m. and 5 p.m. Groups of 4-8 rats were treated with peptides at a variety of doses via intravenous (IV), subcutaneous (SC), intracerebroventricular (ICV), intraperitoneal (IP) injection or administered intranasally (IN) using a micropipetor to deliver 25 μL of solution into one nostril. Immediately after treatment, rats were placed into individual polystyrene cages (27 cm long, 16 cm wide, and 25 cm high) for behavioral observation.

hMC5-R = target: T3, hMC5-R (Homo sapiens, UniProt P33032); assay: Competitive inhibition binding assay, 125I-NDP-alpha-MSH, hMC5-R membranes
T3 construct: expressed in transfected cells

MC4-R [4] = target: T1, MC4-R; assay: Functional evaluation: intracellular cAMP accumulation in HEK-293 cells expressing MC4-R (agonist/antagonist status); type: cell-based; parameters: expressed in transfected cells; host or cells: HEK-293; details: with or without alpha-MSH, 1 hour at 37° C
Experimental: The Ki (nM) of certain peptides were determined, as was the agonist/antagonist status with respect to MC4-R. Functional evaluation of peptides at MC4-R was performed by measuring the accumulation of intracellular cAMP in HEK-293 cells expressing MC4-R. Antagonistic activity was determined by measuring the inhibition of α-MSH-induced cAMP levels following exposure to the compounds. Cells, suspended in Earle's Balanced Salt Solution containing 10 mM HEPES, pH 7.5, 5 mM MgCl2, 1 mM glutamine, 0.1% albumin and 0.6 mM 3-isobutyl-1-methyl-xanthine, a phosphodiesterase inhibitor, were plated in 96 well plates at a density of 0.5×10^5 cells per well. Cells were incubated with the test peptides in the presence or absence of α-MSH for 1 hour at 37° C. cAMP levels were measured by EIA (Amersham) in the cell lysates. Data analysis and EC50 values were determined using nonlinear regression analysis with Prism Graph-Pad software.

[5] = Food intake and body weight change in male Sprague-Dawley rats; type: in vivo, rat; details: for average daily body weight gain / average daily body weight lost: saline animals gained 4 g
Experimental: Food intake and body weight change was evaluated for selected peptides. Male Sprague-Dawley rats weighing ˜300 g at the beginning of the experiment were kept on a 12 hour on/of light cycle. Lights out was adjusted to 12:00 p.m. to allow for dosing just prior to the start of their dark period. Rats (12/group) were fed powdered chow and water ad libitum. For 1 week before treatment, 24-hour food intake and body weight change was recorded to assess a baseline for the group during vehicle treatment. The rats were dosed ICV, IV, SC or IP on day 0 and food intake and body weight measured daily for 1 week. Animals were dosed once per week for up to 6 weeks and their food intake and daily weight changed compared to their baseline. FIGS. 3, 4 and 5 illustrate results of different peptides at different doses and by varying routes of administration.

T1 sequence (P32245 whole entry): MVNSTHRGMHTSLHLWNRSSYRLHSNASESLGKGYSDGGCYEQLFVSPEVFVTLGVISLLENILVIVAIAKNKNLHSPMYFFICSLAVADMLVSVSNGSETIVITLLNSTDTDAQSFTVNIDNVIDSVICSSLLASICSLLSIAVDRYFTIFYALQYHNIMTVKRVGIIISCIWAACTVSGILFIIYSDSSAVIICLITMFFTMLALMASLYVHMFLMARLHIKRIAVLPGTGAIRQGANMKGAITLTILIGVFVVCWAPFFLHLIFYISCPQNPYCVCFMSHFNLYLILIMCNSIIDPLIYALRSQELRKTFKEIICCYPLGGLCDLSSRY
T3 sequence (P33032 whole entry): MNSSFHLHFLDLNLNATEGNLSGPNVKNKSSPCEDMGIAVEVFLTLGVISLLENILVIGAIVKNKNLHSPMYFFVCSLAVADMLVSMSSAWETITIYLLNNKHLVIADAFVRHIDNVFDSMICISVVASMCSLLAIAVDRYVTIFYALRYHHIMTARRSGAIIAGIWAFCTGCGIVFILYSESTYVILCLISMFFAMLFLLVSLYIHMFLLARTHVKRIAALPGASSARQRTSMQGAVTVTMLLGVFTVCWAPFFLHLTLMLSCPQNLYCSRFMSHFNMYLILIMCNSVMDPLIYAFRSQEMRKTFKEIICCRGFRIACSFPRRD
T2 sequence (P41968 whole entry): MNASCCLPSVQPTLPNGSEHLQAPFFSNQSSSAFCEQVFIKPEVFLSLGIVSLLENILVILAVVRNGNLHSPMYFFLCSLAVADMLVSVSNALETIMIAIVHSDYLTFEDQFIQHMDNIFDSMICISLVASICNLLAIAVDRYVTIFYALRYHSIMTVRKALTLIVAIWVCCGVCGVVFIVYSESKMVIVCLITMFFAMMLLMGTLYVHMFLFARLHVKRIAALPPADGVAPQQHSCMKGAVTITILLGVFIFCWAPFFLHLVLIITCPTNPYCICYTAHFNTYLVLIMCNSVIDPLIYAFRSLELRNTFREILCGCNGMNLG
Chain of MC1-R (Q01727 whole entry): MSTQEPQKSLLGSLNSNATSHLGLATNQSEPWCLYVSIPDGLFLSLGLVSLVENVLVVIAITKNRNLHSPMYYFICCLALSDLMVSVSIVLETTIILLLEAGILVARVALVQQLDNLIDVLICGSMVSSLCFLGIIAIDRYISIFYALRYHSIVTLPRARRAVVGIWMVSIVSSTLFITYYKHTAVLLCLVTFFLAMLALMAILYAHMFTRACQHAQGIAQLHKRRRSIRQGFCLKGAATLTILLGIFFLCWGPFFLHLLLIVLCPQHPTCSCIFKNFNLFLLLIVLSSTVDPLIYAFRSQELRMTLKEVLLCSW

conditioned taste aversion response [1]: no conditioned taste aversion response
percent inhibition of 125I-NDP-alpha-MSH binding, MC4-R (MC4-R [2]; hMC4-R membranes, 0.4 nM 125I-NDP-alpha-MSH, mean of triplicate, peptide concentration not given): 99%
Ki (MC4-R [2]; membranes, read-out: Ki MC-4 Mem): 1 nM
percent inhibition of 125I-NDP-alpha-MSH binding, MC3-R (hMC3-R; hMC3-R membranes, 0.4 nM 125I-NDP-alpha-MSH, mean of triplicate, peptide concentration not given): 94%
Ki (hMC3-R; membranes, read-out: Ki MC-3 Mem): 25 nM
Ki (MC1-R): 795 nM
percent inhibition of 125I-NDP-alpha-MSH binding, MC5-R (hMC5-R; hMC5-R membranes, 0.4 nM 125I-NDP-alpha-MSH, mean of triplicate, peptide concentration not given): 73%
Ki (hMC5-R; membranes, read-out: Ki MC-5 Mem): 175 nM
HEK-293 (MC4-R) cells Classification (MC4-R [4]): Agonist
Compound: N=C(N)NCCCC(NC(=O)C(Cc1ccc(Cl)cc1)NC(=O)C(COCc1ccccc1)NC(=O)CCCCCCN)C(=O)NC(Cc1c[nH]c2ccccc12)C(N)=O [7′-amino-heptanoyl-Ser(Bzl)-D-Phe(4-Cl)-Arg-Trp-NH2]
conditioned taste aversion response ([1]; listed as 7′-amino-heptanoyl-Ser(Bzl)-D-Phe(4′-Cl)-Arg-Trp-NH2): did not induce a conditioned taste aversion response
penile erection induction [3]: induced erections
average daily body weight gain ([5]; ICV 0.1 nmol): 3 g
average daily body weight lost ([5]; ICV 0.5 nmol): 1 g
average daily body weight lost ([5]; ICV 1.0 nmol): 3 g
time by which animals returned to baseline after dosing ([5]; ICV dosing, FIG. 4): ≤ 48 h
average daily body weight gain ([5]; IP 750 μg/kg): 4 g
average daily body weight gain ([5]; IP 1500 μg/kg): 2 g
average daily body weight lost ([5]; IP 3000 μg/kg): 1 g
